Laboratory results reported in patent US20230303547A1, “N-CYANOPYRROLIDINES WITH ACTIVITY AS USP30 INHIBITORS” (MISSION THERAPEUTICS LIMITED, priority 2020, published 2023).
Converted amounts (≈) assume the structure as drawn.

Columns and labels:
UCHL1 = UCHL1 (Homo sapiens (Human), UniProt P09936); assay: UCHL1 DUB IC50; assay type: biochemical
Cathepsin B = Cathepsin B (Homo sapiens (Human), UniProt P07858); assay: Cathepsin B IC50; assay type: biochemical
Cathepsin K = Cathepsin K (Homo sapiens (Human), UniProt P43235); assay: Cathepsin K IC50; assay type: biochemical
Sequence of Cathepsin K (P43235 115-329, species assumed): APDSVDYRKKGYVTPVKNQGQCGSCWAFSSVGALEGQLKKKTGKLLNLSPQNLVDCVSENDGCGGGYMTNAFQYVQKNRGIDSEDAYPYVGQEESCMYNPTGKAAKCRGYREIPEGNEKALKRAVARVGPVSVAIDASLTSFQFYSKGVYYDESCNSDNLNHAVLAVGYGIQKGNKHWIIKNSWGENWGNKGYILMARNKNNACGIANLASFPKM

Cathepsin S = Cathepsin S (Homo sapiens (Human), UniProt P25774); assay: Cathepsin S IC50; assay type: biochemical
Sequence of Cathepsin S (P25774 115-331, species assumed): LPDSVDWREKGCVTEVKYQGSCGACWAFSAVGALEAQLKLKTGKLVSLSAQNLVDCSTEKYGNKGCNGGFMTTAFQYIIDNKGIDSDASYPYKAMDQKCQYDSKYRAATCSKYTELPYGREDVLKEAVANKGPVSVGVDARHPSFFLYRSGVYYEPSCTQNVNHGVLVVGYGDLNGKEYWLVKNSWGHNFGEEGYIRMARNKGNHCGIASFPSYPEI

Cathepsin V = Cathepsin V (Homo sapiens (Human), UniProt O60911); assay: Cathepsin V IC50; assay type: biochemical
Sequence of Cathepsin V (O60911 114-334, species assumed): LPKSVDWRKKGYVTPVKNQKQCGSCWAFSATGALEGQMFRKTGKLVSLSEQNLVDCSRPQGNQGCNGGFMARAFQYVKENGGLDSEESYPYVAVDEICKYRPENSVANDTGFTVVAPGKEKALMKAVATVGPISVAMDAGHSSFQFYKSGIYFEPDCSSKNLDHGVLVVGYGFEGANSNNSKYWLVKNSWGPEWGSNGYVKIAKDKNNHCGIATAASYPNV

Endogenous USP30 = Endogenous USP30 (Homo sapiens (Human), UniProt Q70CQ3); assay: USP30 endogenous cellular target engagement assay (Cell TE WB); assay type: cell-based; details: Hela cells stably overexpressing YFP-Parkin, 1 hour
Sequence of Endogenous USP30 (Q70CQ3 whole entry): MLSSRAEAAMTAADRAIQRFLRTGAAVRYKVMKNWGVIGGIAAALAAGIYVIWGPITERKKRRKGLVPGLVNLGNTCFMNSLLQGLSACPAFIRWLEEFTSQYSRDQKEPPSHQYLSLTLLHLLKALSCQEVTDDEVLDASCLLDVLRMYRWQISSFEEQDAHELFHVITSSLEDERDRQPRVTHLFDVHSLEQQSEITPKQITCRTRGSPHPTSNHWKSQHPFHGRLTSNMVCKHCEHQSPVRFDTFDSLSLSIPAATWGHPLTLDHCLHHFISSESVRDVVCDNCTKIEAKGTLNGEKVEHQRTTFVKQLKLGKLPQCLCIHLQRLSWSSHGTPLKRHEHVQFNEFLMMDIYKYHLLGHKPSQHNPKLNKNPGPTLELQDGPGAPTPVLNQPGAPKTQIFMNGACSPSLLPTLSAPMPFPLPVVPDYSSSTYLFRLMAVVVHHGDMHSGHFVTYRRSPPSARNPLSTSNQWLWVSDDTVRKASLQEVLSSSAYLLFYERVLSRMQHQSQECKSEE
Text: (§1) USP30 is a transmembrane protein located in the outer membrane of mitochondria, which are energy-producing organelles present inside cells. […] The USP30 cellular western blot (WB) assay described herein aims to test the activity of compounds against USP30 in cells using an irreversible activity probe to monitor USP30 activity. Analogously to the cellular western blot assay, target engagement assessment (ex vivo) may be carried out in either brain or kidney tissue samples from compound-dosed animals. To extend target binding knowledge to downstream pharmacodynamics, assessment of TOM20 (an outer mitochondrial membrane protein) ubiquitylation may be made.
Hela cells stably overexpressing YFP-Parkin were seeded into 6 well dishes. Once adhered, cells were treated with appropriate concentrations of test compounds or vehicle control for 1 hour at 37° C., 5% CO2. […] USP30 was detected using an anti-USP30 Sheep S746D antibody (MRC PPU Reagents and Services) and a rabbit anti sheep secondary IgG (H+L) horseradish peroxidase conjugated (Thermo #31480) and visualised using ECL reagent (GE #RPN2109) on a GE LAS4000 imager. Target engagement was measured by quantitation of the bands corresponding to USP30 and USP30 bound to the Ub-VME probe and expression of this proportion compared to vehicle treated control.

[1] = tested on: HCT116 human colorectal carcinoma cells; assay: In vitro cytotoxicity (Cell Tox), alamarBlue; assay type: cell-based; details: 96-hour continual compound exposure
Text: There is also a need for compounds that have a favourable safety profile, which may be measured by a variety of standard in vitro and in vivo methods. A cell toxicity counter-screen may be used to assay the anti-proliferative/cytotoxic effect in a particular cell line (e.g. HCT116) by fluorometric detection of rezasurin (alamarBlue™) to resofurin in response to mitochondrial activity.
In Vitro Cytotoxicity (Cell Tox): Measured in HCT116 human colorectal carcinoma cells using alamarBlue™ as the assay endpoint. Compound cytotoxicity was measured over a period of 96-hour continual compound exposure.

Log D = assay type: physicochemical; details: pH 7.4; read-out: Log D measured at pH 7.4
Text: log D: distribution co-efficient; lipophilicity measurement.

Turbidimetric solubility = assay type: physicochemical; details: aqueous buffer, kinetic from dmso stock
Text: The solubility of a compound is an important factor in achieving a desired concentration of drug in systemic circulation for the anticipated pharmacological response. Low aqueous solubility is a problem encountered with formulation development of new chemical entities and to be absorbed a drug must be present in the form of solution at the site of absorption. The kinetic solubility of a compound may be measured using a turbidimetric solubility assay, the data from which may also be used in conjunction with Caco-2 permeability data to predict dose dependent human intestinal absorption.
Turbidimetric solubility: Test compound solution prepared in DMSO diluted into aqueous buffer. Turbidimetry is used as the end-point by measuring absorbance at 620 nm.

Hepatocyte Cl human = assay type: in vitro ADME; details: human hepatocytes
Description: Hep Cl human: in vitro hepatocyte clearance in human cells.
Clu: in vitro clearance. Clu as defined here is the scaled clearance, in turn calculated from the intrinsic clearance. The intrinsic clearance is the predicted clearance due to hepatic metabolic reactions, determined from incubation of a compound in a hepatocyte preparation.

Mouse plasma stability = assay type: in vitro ADME; details: read-out: Stability Mouse plasma t½
Text: Other parameters that may be measured using standard assays that are indicative of a compound’s exposure profile include, for example plasma stability (half-life measurement), blood AUC, Cmax, Cmin and Tmax values.

[2] = Plasma free fraction by equilibrium dialysis; assay type: in vitro ADME; details: mouse plasma; read-out: Binding Mouse Plasma fu,p
Text: Plasma fu,p: The free fraction of a compound in plasma preparation determined by in vitro equilibrium dialysis.

[3] = Brain homogenate free fraction by equilibrium dialysis; assay type: in vitro ADME; details: mouse brain homogenate; read-out: Binding Mouse Brain fu,br
Text: Brain fu,br: The free fraction of a compound in brain homogenate preparation determined by in vitro equilibrium dialysis.

PK mouse 2 mg/kg iv = assay type: in vivo; details: for Kp uu: brain and plasma (unbound), 2 mg/kg IV dose - mouse; for clearance: plasma, mouse, 2 mg/kg iv, read-out: Cl plasma
Text: Cl in vivo clearance: Pharmacokinetic measurement of the volume of plasma (or any matrix) from which a substance is completely removed per unit time.
Kpuu is the ratio of unbound drug in brain to unbound drug in plasma and may be indicative of potential for treating peripheral and/or CNS indications.

PK mouse 10 mg/kg po = assay type: in vivo; details: for Unbound plasma Cmax/TOM20-Ub cell potency: 10 mg/kg po dose - mouse; for Oral F: mouse, 10 mg/kg
Text: Oral F: Oral bioavailability.

TOM20 ubiquitylation = assay: TOM20-ubiquitylation assay; assay type: cell-based, human
Text: as §1
Human cell lines can be challenged with mitochondrial depolarizing agents (ionophores (eg. CCCP, valinomycin), mitochondrial complex inhibitors (oligomycin, antimycin A)) to induce ubiquitylation of TOM20, which is then further promoted in the presence of USP30 inhibitors. TOM20 ubiquitylation is subsequently assessed through western blotting of the cell lysates, with TOM20 ubiquitylation adduct detection possible due to an 8 kDa molecule weight increase for each molecule of ubiquitin added, resulting in laddering of a TOM20 immunoreactive band. TOM20-ubiquitylation levels can be quantified using chemiluminescence densitometry of laddered immunoreactive bands.

Sequence of UCHL1 (P09936 whole entry, species assumed): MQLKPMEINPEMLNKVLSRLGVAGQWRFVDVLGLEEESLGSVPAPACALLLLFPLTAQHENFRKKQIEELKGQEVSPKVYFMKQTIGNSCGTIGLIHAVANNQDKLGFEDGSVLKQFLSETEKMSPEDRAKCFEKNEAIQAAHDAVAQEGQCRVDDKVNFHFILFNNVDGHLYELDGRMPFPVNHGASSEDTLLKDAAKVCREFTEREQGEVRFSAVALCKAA

Compound | IC50 (UCHL1) [µM] | IC50 (Cathepsin B) [µM] | IC50 (Cathepsin K) [µM] | IC50 (Cathepsin S) [µM] | IC50 (Cathepsin V) [µM] | EC50 (Endogenous USP30) [nM] | EC50 ([1]; Homo sapiens, HCT-116, 96 h) [µM] | logD (Log D) | solubility (Turbidimetric solubility) [µM] | Hepatocyte Cl human Scaled Clu (Hepatocyte Cl human) [mL/min/kg] | half-life (Mouse plasma stability) [min] | fraction unbound [2] | fraction unbound [3] | Kp uu (PK mouse 2 mg/kg iv) | clearance (PK mouse 2 mg/kg iv) [mL/min/kg] | Unbound plasma Cmax/TOM20-Ub cell potency (PK mouse 10 mg/kg po) | Oral F (PK mouse 10 mg/kg po) [%] | TOM20-Ub 1.5-fold gain, Antimycin A/oligomycin mitophagy trigger EC1.5x (TOM20 ubiquitylation) [µM] | EC50 [1] [µM]
C[C@@H]1C[C@@H](NC(=O)c2ncc(-c3cc(C#N)ccc3OC3CC3)o2)CN1C#N [Example 1, 5-(5-cyano-2-cyclopropoxyphenyl)-N-((3R,5R)-1-cyano-5-methylpyrrolidin-3-yl)oxazole-2-carboxamide] | > 300 | 107 | 10.5 | 54.4 | 30.9 | 2 | 23.8 | 2.5 | 65 (≈ 24.5 µg/mL) | 18.6 | > 120 | 0.09 | 0.06 | 0.02 | 41 | 45 | 37 | 0.006 | –
COC[C@@H]1C[C@@H](NC(=O)c2ncc(-c3cc(C#N)ccc3OC3CC3)o2)CN1C#N [Example 2, 5-(5-cyano-2-cyclopropoxyphenyl)-N-((3R,5S)-1-cyano-5-(methoxymethyl)pyrrolidin-3-yl)oxazole-2-carboxamide] | > 300 | > 300 | 18.9 | 91.2 | 60.6 | 3 | 27.1 | 2.2 | > 100 | 5.0 | > 120 | 0.07 | 0.2 | 0.01 | 20 | 140 | 47 | 0.007 | > 30
